In patent publication US4764433A, “Agent for the protection of materials” (Bayer Aktiengesellschaft, priority 1985, dated 1988):
≈ marks a conversion by molar mass, not a printed value.

Tests used:
Coniophora puteana [1] = experiment: Limiting toxic values (toxicity limits) on pinewood; conditions: 6 weeks at 21° to 23° C.; concentrations at which timber still attacked - no longer attacked
Method: (§1) Determination of the limiting toxic values (kg/m^3 of timber) of active compounds according to the invention for Coniophora puteana and Polyporus versicolor on pinewood and beechwood, respectively.
(§2) The limiting toxic values are determined by a method modelled on the method described by H. P. Sutter, Int. Biodeterioration Bulletin, 14 (3), 1978, pages 95 to 99.
(§3) For each test, freshly cut, thin pieces of cross-cut timber (dimensions 40×40 mm, thickness about 2 mm) are impregnated in vacuo with solutions of varying concentrations of active compounds. In each case one concentration of active compound is used to impregnate 15 timber samples simultaneously. 5 of these are in each case used at the same time for a mycological test.
(§4) The amount of active compound absorbed is determined from the retention of solvent (determined by weighing the small piece of timber before and after impregnation), the density of the timber and the concentration of the active compound in the residual impregnating solution.
(§5) Before the mycological test, the test specimens are sterilized with propylene oxide and in each case 1 test specimen is brought into contact in a Petri dish with the fully developed mycellium of the test fungus on malt extract agar. The toxicity limits are determined visually after 6 weeks at 21° to 23° C.
(§6) The toxicity limits ([…] of timber) for substances according to the invention are shown in the table below; the toxicity limits indicate the concentrations at which the timber is still attacked and at which the timber is no longer attacked.

Lentinus tigrinus = experiment: MIC against fungi (agar, beer wort and peptone); assay type: cell-based; conditions: 336 h, 2 weeks at 28° C., 60 to 70% relative humidity, read-out: MIC values when substances according to the invention act on fungi
Method: (§7) Compounds according to the invention are added, in concentrations of 0.1 mg/l to 5,000 mg/l, to an agar prepared from beer wort and peptone.

Polyporus versicolor [2] = experiment: MIC against fungi (agar, beer wort and peptone); assay type: cell-based; conditions: Trametes versicolor, 336 h, 2 weeks at 28° C., 60 to 70% relative humidity, read-out: MIC values when substances according to the invention act on fungi
Method: as §7

Penicillium glaucum = experiment: MIC against fungi (agar, beer wort and peptone); assay type: cell-based; conditions: 336 h, 2 weeks at 28° C., 60 to 70% relative humidity, read-out: MIC values when substances according to the invention act on fungi
Method: as §7

Sclerophoma pityophila = experiment: MIC against fungi (agar, beer wort and peptone); assay type: cell-based; conditions: Sydowia polyspora, 336 h, 2 weeks at 28° C., 60 to 70% relative humidity, read-out: MIC values when substances according to the invention act on fungi
Method: as §7

Aspergillus niger = experiment: MIC against fungi (agar, beer wort and peptone); assay type: cell-based; conditions: 336 h, 2 weeks at 28° C., 60 to 70% relative humidity, read-out: MIC values when substances according to the invention act on fungi
Method: as §7

Chaetomium globosum = experiment: MIC against fungi (agar, beer wort and peptone); assay type: cell-based; conditions: 336 h, 2 weeks at 28° C., 60 to 70% relative humidity, read-out: MIC values when substances according to the invention act on fungi
Method: as §7

Alternaria tenuis = experiment: MIC against fungi (agar, beer wort and peptone); assay type: cell-based; conditions: Alternaria alternata, 336 h, 2 weeks at 28° C., 60 to 70% relative humidity, read-out: MIC values when substances according to the invention act on fungi
Method: as §7

Coniophora puteana [3] = experiment: MIC against fungi (agar, beer wort and peptone); assay type: cell-based; conditions: 336 h, 2 weeks at 28° C., 60 to 70% relative humidity, read-out: MIC values when substances according to the invention act on fungi
Method: as §7

Aureobasidium pullulans = experiment: MIC against fungi (agar, beer wort and peptone); assay type: cell-based; conditions: 336 h, 2 weeks at 28° C., 60 to 70% relative humidity, read-out: MIC values when substances according to the invention act on fungi
Method: as §7

Polyporus versicolor [4] = experiment: Limiting toxic values (toxicity limits) on beechwood; conditions: 6 weeks at 21° to 23° C.; concentrations at which timber still attacked - no longer attacked
Method: as §1, §2, §3, §4, §5, §6

slime organisms = experiment: Action against slime organisms, MIC in Allen's nutrient solution; assay type: cell-based; conditions: 504 h, approx. 10^6 microbes/ml, 3 weeks at room temperature, read-out: MIC in mg/l when the substances act on slime organisms
Method: Substances according to the invention, dissolved in a little acetone, are used in concentrations of 0.1 to 100 mg/l in a particular case in Allen's nutrient solution (Arch. Mikrobiol., 17, 34 to 53 (1952)), containing, in 4 l of sterile water, 0.2 g of ammonium chloride, 4.0 g of sodium nitrate, 1.0 g of dipotassium hydrogen phosphate, 0.2 g of calcium chloride, 2.05 g of magnesium sulphate, 0.02 g of iron chloride and 1% of caprolactam. Shortly beforehand, the nutrient solution is infested with slime organisms (approx. 10^6 microbes/ml) which have been isolated from circulating spinning water used in the production of polyamide.

Phytophthora infestans = assay type: in vivo; conditions: for % attack at an active compound concentration of 10 ppm: tomato plants, protective; for fungicidal properties for plant protection: phytophthora test [tomatoes], sulphamides compared with N-sulphenylated benzenesulphonamides according to the invention
[5] = cited from earlier work

| SMILES | Toxicity Limits, Coniophora puteana on pinewood (Coniophora puteana [1]) | MIC (Lentinus tigrinus) [µg/mL] | MIC (Polyporus versicolor [2]) [µg/mL] | MIC (Penicillium glaucum) [µg/mL] | MIC (Sclerophoma pityophila) [µg/mL] | MIC (Aspergillus niger) [µg/mL] | MIC (Chaetomium globosum) [µg/mL] | MIC (Alternaria tenuis) [µg/mL] | MIC (Coniophora puteana [3]) [µg/mL] | MIC (Aureobasidium pullulans) [µg/mL] | Toxicity Limits, Polyporus versicolor on beechwood (Polyporus versicolor [4]) | MIC (slime organisms) [mg/L] | % attack at an active compound concentration of 10 ppm (Phytophthora infestans) [%] | fungicidal properties for plant protection (Phytophthora infestans) | solubility in the formulating agents customary for timber preservatives [5] |
| --- | --- | --- | --- | --- | --- | --- | --- | --- | --- | --- | --- | --- | --- | --- | --- |
| Cc1ccc(S(=O)(=O)N(C)SC(F)(Cl)Cl)cc1 [Example 1, N-fluorodichloromethylthio-N-methylamide of 4-toluenesulphonic acid] | 0.22-0.65 kg/m^3 of timber | 5 (≈ 15.7 µM) | 2 (≈ 6.28 µM) | 10 (≈ 31.4 µM) | 5 (≈ 15.7 µM) | 10 (≈ 31.4 µM) | 3.5 (≈ 11 µM) | 20 (≈ 62.8 µM) | 0.5 (≈ 1.57 µM) | 5 (≈ 15.7 µM) | 2.2-2.9 kg/m^3 of timber | ≤ 2 | – | – | – |
| Cc1ccc(S(=O)(=O)N(C)SC(F)(Cl)Cl)cc1[N+](=O)[O-] [Example 8] | – | 5 (≈ 13.8 µM) | 7.5 (≈ 20.6 µM) | 20 (≈ 55.1 µM) | 5 (≈ 13.8 µM) | 20 (≈ 55.1 µM) | 15 (≈ 41.3 µM) | 5 (≈ 13.8 µM) | 0.75 (≈ 2.06 µM) | 5 (≈ 13.8 µM) | – | – | – | – | – |
| CN(SC(F)(Cl)Cl)S(=O)(=O)c1cccc([N+](=O)[O-])c1 [Example 27] | – | – | – | 20 (≈ 57.3 µM) | – | 20 (≈ 57.3 µM) | 20 (≈ 57.3 µM) | – | – | – | – | – | – | – | – |
| Cc1ccc(C)c(S(=O)(=O)N(C)SC(F)(Cl)Cl)c1 [Example 19] | 0.24-0.72 kg/m^3 of timber | 100 (≈ 301 µM) | 100 (≈ 301 µM) | 20 (≈ 60.2 µM) | 10 (≈ 30.1 µM) | 10 (≈ 30.1 µM) | < 2 | 100 (≈ 301 µM) | 7.5 (≈ 22.6 µM) | 35 (≈ 105 µM) | 1.07-1.76 kg/m^3 of timber | – | – | – | – |
| CCN(SC(F)(Cl)Cl)S(=O)(=O)c1ccc(Cl)cc1 [Example 6] | – | 0.5 (≈ 1.42 µM) | 1 (≈ 2.84 µM) | 10 (≈ 28.4 µM) | 7.5 (≈ 21.3 µM) | 10 (≈ 28.4 µM) | 35 (≈ 99.2 µM) | 20 (≈ 56.7 µM) | 0.75 (≈ 2.13 µM) | 10 (≈ 28.4 µM) | – | – | – | – | – |
| CN(SC(F)(Cl)Cl)S(=O)(=O)c1ccc(Cl)c(Cl)c1 [Example 25] | – | – | – | 10 (≈ 26.8 µM) | – | 20 (≈ 53.6 µM) | 7.5 (≈ 20.1 µM) | – | – | – | – | – | – | – | – |
| Cc1ccc(S(=O)(=O)N(C)SC(F)(Cl)Cl)cc1C [Example 17] | – | – | – | 10 (≈ 30.1 µM) | – | 10 (≈ 30.1 µM) | 3.5 (≈ 10.5 µM) | – | – | – | – | – | – | – | – |
| CCN(SC(F)(Cl)Cl)S(=O)(=O)c1ccccc1 [Example 2] | 0.24-0.74 kg/m^3 of timber | – | – | 10 (≈ 31.4 µM) | – | 10 (≈ 31.4 µM) | < 2 | – | – | – | 1.4-2.4 kg/m^3 of timber | ≤ 2 | – | – | – |
| CN(SC(F)(Cl)Cl)S(=O)(=O)c1ccc(Cl)c([N+](=O)[O-])c1 [Example 26] | – | – | – | 20 (≈ 52.1 µM) | – | 50 (≈ 130 µM) | 20 (≈ 52.1 µM) | – | – | – | – | – | – | – | – |
| O=C1c2ccccc2C(=O)N1SC(F)(Cl)Cl [A, N-fluorodichloromethylthiophthalimide, reference compound] | – | 2 (≈ 7.14 µM) | 50 (≈ 179 µM) | 35 (≈ 125 µM) | 10 (≈ 35.7 µM) | 200 (≈ 714 µM) | 100 (≈ 357 µM) | 10 (≈ 35.7 µM) | 2 (≈ 7.14 µM) | 50 (≈ 179 µM) | – | – | – | – | – |
| CN(SC(F)(Cl)Cl)S(=O)(=O)c1ccc([N+](=O)[O-])cc1 [Example 14] | 0.26-0.79 kg/m^3 of timber | 5 (≈ 14.3 µM) | 10 (≈ 28.6 µM) | 20 (≈ 57.3 µM) | 3.5 (≈ 10 µM) | 20 (≈ 57.3 µM) | 20 (≈ 57.3 µM) | 35 (≈ 100 µM) | 3.5 (≈ 10 µM) | 5 (≈ 14.3 µM) | 2.2-3.07 kg/m^3 of timber | – | – | – | – |
| CN(C)S(=O)(=O)N(SC(F)(Cl)Cl)c1ccccc1 [drawing 12] | – | – | – | – | – | – | – | – | – | – | – | – | 19 | – | – |
| Cc1ccc(N(SC(F)(Cl)Cl)S(=O)(=O)N(C)C)cc1 [drawing 13] | – | – | – | – | – | – | – | – | – | – | – | – | 14 | – | – |
| CN(C)S(=O)(=O)N(SC(F)(Cl)Cl)c1ccccc1 [B, N,N-dimethyl-N'-phenyl-N'-(fluorodichloromethylthio)-sulphamide, reference compound] | 1.61-2.25 kg/m^3 of timber | 10 (≈ 30 µM) | 20 (≈ 60 µM) | 50 (≈ 150 µM) | 15 (≈ 45 µM) | 50 (≈ 150 µM) | 50 (≈ 150 µM) | 10 (≈ 30 µM) | 7.5 (≈ 22.5 µM) | 7.5 (≈ 22.5 µM) | 2.23-2.81 kg/m^3 of timber | – | – | considerably better fungicidal properties for plant protection | very sparingly soluble |
| CN(SC(F)(Cl)Cl)S(=O)(=O)c1ccccc1 [Example 24] | – | – | – | 5 (≈ 16.4 µM) | – | 5 (≈ 16.4 µM) | 3.5 (≈ 11.5 µM) | – | – | – | – | – | – | – | – |
| CCCCN(SC(F)(Cl)Cl)S(=O)(=O)c1ccccc1 [Example 3] | 0.25-0.76 kg/m^3 of timber | – | – | – | – | – | – | – | – | – | 0.63-1.29 kg/m^3 of timber | – | – | – | – |
| CN(SC(F)(Cl)Cl)S(=O)(=O)c1cc(Cl)ccc1Cl [Example 28] | – | – | – | 15 (≈ 40.2 µM) | – | 20 (≈ 53.6 µM) | 35 (≈ 93.8 µM) | – | – | – | – | – | – | – | – |
| CCN(SC(F)(Cl)Cl)S(=O)(=O)c1ccc(C)cc1 [Example 4] | 0.65-1.3 kg/m^3 of timber | 0.5 (≈ 1.5 µM) | 0.5 (≈ 1.5 µM) | 20 (≈ 60.2 µM) | 3.5 (≈ 10.5 µM) | 10 (≈ 30.1 µM) | 7.5 (≈ 22.6 µM) | 10 (≈ 30.1 µM) | 0.3 (≈ 0.903 µM) | 3.5 (≈ 10.5 µM) | 2.8-3.7 kg/m^3 of timber | – | – | – | – |
| Cc1ccc(N(SC(F)(Cl)Cl)S(=O)(=O)N(C)C)cc1 [N,N-dimethyl-N'-(4-tolyl)-N'-dichlorofluoromethylthio-sulphamide] | – | – | – | – | – | – | – | – | – | – | – | – | – | considerably better fungicidal properties for plant protection | – |
| COCCCN(SC(F)(Cl)Cl)S(=O)(=O)c1ccc(C)cc1 [Example 22] | – | – | – | 35 (≈ 93 µM) | – | 20 (≈ 53.1 µM) | 5 (≈ 13.3 µM) | – | – | – | – | – | – | – | – |
